Reference: the supplement of paper PMC11451515

Tests used:
[1] = system: P12-Ichikawa; assay: AUC of viability dose-response curve (% viability x log10 dose units); higher = less sensitive; details: 48 h
Method in brief: (§1)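 Leukemia cells adapted to each medium were seeded in 1536-well plates (500 or 1000 cells/well). They were dosed with library compounds in DMSO at 11 threefold doses, 47 μM to 0.79 nM, for 48 h at 37°C. CellTiter-Glo One luminescence was normalised per plate to DMSO and cell-free wells. Area under the curve was integrated by trapezoidal rule over log10 doses on a four-parameter log-logistic fit; curves exceeding full viability were scaled and curves failing quality control removed.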

[2] = system: NOMO1; assay: as above; details: 48 h
Method in brief: as §1

[3] = RPMI 5 mM glucose + 10% dialyzed FBS

CCCC[N+]1(C)[C@@H]2CC(OC(=O)[C@H](CO)c3ccccc3)C[C@H]1[C@@H]1O[C@@H]12 (some centres not stated)
AUC of viability dose-response curve ([1]; HPLM + 10% dialyzed FBS): 452
AUC of viability dose-response curve ([1]; RPMI 5 mM glucose + 10% FBS): 450
AUC of viability dose-response curve [1, 3]: 460
AUC of viability dose-response curve ([2]; HPLM + 10% dialyzed FBS): 420
AUC of viability dose-response curve ([2]; RPMI 5 mM glucose + 10% FBS): 431
AUC of viability dose-response curve [2, 3]: 450

CNC(=O)c1ccccc1Sc1ccc2c(/C=C/c3ccccn3)n[nH]c2c1
AUC of viability dose-response curve ([1]; HPLM + 10% dialyzed FBS): 390
AUC of viability dose-response curve ([1]; RPMI 5 mM glucose + 10% FBS): 386
AUC of viability dose-response curve [1, 3]: 409
AUC of viability dose-response curve ([2]; HPLM + 10% dialyzed FBS): 425
AUC of viability dose-response curve ([2]; RPMI 5 mM glucose + 10% FBS): 430
AUC of viability dose-response curve [2, 3]: 418

Cc1cc(-c2ccc(CC(=O)Nc3ccc(-c4cccnc4)cc3)cc2)ccn1
AUC of viability dose-response curve ([1]; HPLM + 10% dialyzed FBS): 439
AUC of viability dose-response curve ([1]; RPMI 5 mM glucose + 10% FBS): 447
AUC of viability dose-response curve [1, 3]: 438
AUC of viability dose-response curve ([2]; HPLM + 10% dialyzed FBS): 380
AUC of viability dose-response curve ([2]; RPMI 5 mM glucose + 10% FBS): 420
AUC of viability dose-response curve [2, 3]: 413

CC1CCN(c2cc(N3CCN(C)CC3)ccc2NC(=O)c2cc(C#N)c[nH]2)CC1
AUC of viability dose-response curve ([1]; HPLM + 10% dialyzed FBS): 450
AUC of viability dose-response curve ([1]; RPMI 5 mM glucose + 10% FBS): 453
AUC of viability dose-response curve [1, 3]: 453
AUC of viability dose-response curve ([2]; HPLM + 10% dialyzed FBS): 457
AUC of viability dose-response curve ([2]; RPMI 5 mM glucose + 10% FBS): 463
AUC of viability dose-response curve [2, 3]: 454

COc1ccc2c(c1)CC[C@@H](CN(C)CC(=O)O)[C@H]2c1ccccc1
AUC of viability dose-response curve ([1]; HPLM + 10% dialyzed FBS): 368
AUC of viability dose-response curve ([1]; RPMI 5 mM glucose + 10% FBS): 369
AUC of viability dose-response curve [1, 3]: 390
AUC of viability dose-response curve ([2]; HPLM + 10% dialyzed FBS): 409
AUC of viability dose-response curve ([2]; RPMI 5 mM glucose + 10% FBS): 407
AUC of viability dose-response curve [2, 3]: 411

CC(=O)O/N=C1/C(=C2\C(=O)Nc3cc(Br)ccc32)Nc2ccccc21
AUC of viability dose-response curve ([1]; HPLM + 10% dialyzed FBS): 439
AUC of viability dose-response curve ([1]; RPMI 5 mM glucose + 10% FBS): 443
AUC of viability dose-response curve [1, 3]: 437
AUC of viability dose-response curve ([2]; HPLM + 10% dialyzed FBS): 431
AUC of viability dose-response curve ([2]; RPMI 5 mM glucose + 10% FBS): 450
AUC of viability dose-response curve [2, 3]: 443

CC(C)C1=N[N](C\2=C1C(=O)N\C(=N2)CC3=CC=C(OCCO)C=C3)C4=C(Cl)C=CC=C4Cl
AUC of viability dose-response curve ([1]; HPLM + 10% dialyzed FBS): 244
AUC of viability dose-response curve ([1]; RPMI 5 mM glucose + 10% FBS): 241
AUC of viability dose-response curve [1, 3]: 239
AUC of viability dose-response curve ([2]; HPLM + 10% dialyzed FBS): 225
AUC of viability dose-response curve ([2]; RPMI 5 mM glucose + 10% FBS): 226
AUC of viability dose-response curve [2, 3]: 222

CCCCc1ccc(N[S+](=O)([O-])c2ccc(C)c(C(=O)N3CCN(c4cccc(C)c4C)CC3)c2)cc1
AUC of viability dose-response curve ([1]; HPLM + 10% dialyzed FBS): 468
AUC of viability dose-response curve ([1]; RPMI 5 mM glucose + 10% FBS): 468
AUC of viability dose-response curve [1, 3]: 464
AUC of viability dose-response curve ([2]; HPLM + 10% dialyzed FBS): 457
AUC of viability dose-response curve ([2]; RPMI 5 mM glucose + 10% FBS): 435
AUC of viability dose-response curve [2, 3]: 473

CCCCc1oc2ccccc2c1C(=O)c1cc(I)c(OCCN(CC)CC)c(I)c1
AUC of viability dose-response curve ([1]; HPLM + 10% dialyzed FBS): 451
AUC of viability dose-response curve ([1]; RPMI 5 mM glucose + 10% FBS): 448
AUC of viability dose-response curve [1, 3]: 463
AUC of viability dose-response curve ([2]; HPLM + 10% dialyzed FBS): 442
AUC of viability dose-response curve ([2]; RPMI 5 mM glucose + 10% FBS): 450
AUC of viability dose-response curve [2, 3]: 457

Cc1n[nH]c(C)c1Cc1sc2c(c1C(=O)N1C[C@H](O)CO1)c(=O)n(C)c(=O)n2CC(C)C
AUC of viability dose-response curve ([1]; HPLM + 10% dialyzed FBS): 416
AUC of viability dose-response curve ([1]; RPMI 5 mM glucose + 10% FBS): 410
AUC of viability dose-response curve [1, 3]: 417
AUC of viability dose-response curve ([2]; HPLM + 10% dialyzed FBS): 456
AUC of viability dose-response curve ([2]; RPMI 5 mM glucose + 10% FBS): 476
AUC of viability dose-response curve [2, 3]: 468

COC1=CC(=C2C(=O)N(COC/3=C/C(=O)N4\C=C/C=C(OCCN5CCCCC5)\C4=N3)[S+]([O-])(=O)C2=C1)C(C)C
AUC of viability dose-response curve ([1]; HPLM + 10% dialyzed FBS): 477
AUC of viability dose-response curve ([1]; RPMI 5 mM glucose + 10% FBS): 460
AUC of viability dose-response curve [1, 3]: 470
AUC of viability dose-response curve ([2]; HPLM + 10% dialyzed FBS): 460
AUC of viability dose-response curve ([2]; RPMI 5 mM glucose + 10% FBS): 463
AUC of viability dose-response curve [2, 3]: 471

Cc1n[nH]c2ccc(-c3cncc(OC[C@@H](N)Cc4c[nH]c5ccccc45)c3)cc12
AUC of viability dose-response curve ([1]; HPLM + 10% dialyzed FBS): 309
AUC of viability dose-response curve ([1]; RPMI 5 mM glucose + 10% FBS): 294
AUC of viability dose-response curve [1, 3]: 290
AUC of viability dose-response curve ([2]; HPLM + 10% dialyzed FBS): 270
AUC of viability dose-response curve ([2]; RPMI 5 mM glucose + 10% FBS): 310
AUC of viability dose-response curve [2, 3]: 280
